Key:
MDA-MB-231 = test: Cytotoxicity against human MDA-MB-231 cells after 48 hrs by MTS assay; type: functional, cell-based; settings: MDA-MB-231, 48 h
Plasma [1] = test: Plasma concentration in rat; type: ADME, cell-free
[2] = molecular target: T1, Cadherin-11 (Mus musculus) (UniProt P55288); test: Binding affinity to mouse recombinant CDH11 extracellular domain 1-2 by surface plasmon resonance
T1 sequence (whole entry): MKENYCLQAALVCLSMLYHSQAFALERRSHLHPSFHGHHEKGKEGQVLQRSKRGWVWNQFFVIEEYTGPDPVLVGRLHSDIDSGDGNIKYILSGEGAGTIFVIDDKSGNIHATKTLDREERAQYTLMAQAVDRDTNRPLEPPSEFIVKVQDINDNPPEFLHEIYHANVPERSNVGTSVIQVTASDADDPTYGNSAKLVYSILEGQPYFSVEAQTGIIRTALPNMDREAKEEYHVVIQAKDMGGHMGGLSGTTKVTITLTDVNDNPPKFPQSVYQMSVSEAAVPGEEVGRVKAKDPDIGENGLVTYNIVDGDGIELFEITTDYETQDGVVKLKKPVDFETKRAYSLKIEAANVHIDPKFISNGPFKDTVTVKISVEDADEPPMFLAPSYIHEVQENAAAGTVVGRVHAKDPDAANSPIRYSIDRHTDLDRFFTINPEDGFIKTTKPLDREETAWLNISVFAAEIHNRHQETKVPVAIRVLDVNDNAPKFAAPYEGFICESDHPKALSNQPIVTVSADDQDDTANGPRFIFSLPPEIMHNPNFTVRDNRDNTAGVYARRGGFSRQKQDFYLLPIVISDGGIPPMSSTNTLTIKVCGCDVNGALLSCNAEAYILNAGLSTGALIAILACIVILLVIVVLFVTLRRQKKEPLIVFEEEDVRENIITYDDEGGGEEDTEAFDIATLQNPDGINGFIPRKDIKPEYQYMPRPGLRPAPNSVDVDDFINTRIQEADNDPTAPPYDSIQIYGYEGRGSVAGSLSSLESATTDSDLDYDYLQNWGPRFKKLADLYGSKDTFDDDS

Plasma [3] = test: Plasma concentration in human; type: ADME, cell-free

SMILES | IC50 (MDA-MB-231) [µM] | concentration (Plasma [1]) [nM] | Activity [2] | concentration (Plasma [3]) [nM]
Cc1ccc(-c2cc(C(F)(F)F)nn2-c2ccc(S(N)(=O)=O)cc2)cc1 [CELECOXIB] | 40 | 1000 | Dose-dependent effect | 1000
Cc1ccc(C)c(-c2cc(C(F)(F)F)nn2-c2ccc(S(N)(=O)=O)cc2)c1 [DIMETHYL CELECOXIB] | 36 | – | Dose-dependent effect | –

Source: ChEMBL document CHEMBL2163207, “Predicting new indications for approved drugs using a proteochemometric method” (J Med Chem, 2012)
